Reference: patent US10444229B2, “Method of measuring insulin resistance with fatty acid combustion, and composition used herein” (OTSUKA PHARMACEUTICAL CO., LTD., priority 2013, dated 2019)
Where two headings read alike, the source gives them in different places.

Assays:
[1] = 13C breath test after intravenous administration of 13C-labeled compounds to ZDF rats (Lean and Fatty), fasting or feeding (Experimental Example 2); settings: for Δ13C(‰) of Fatty versus Lean rats: rat, in vivo, iv; for Δ13C(‰) in expired air, fasting state versus feeding state / transition of Δ13C(‰), Lean rats versus Fatty rats: intravenous; for transition of Δ13C(‰), Lean rats versus Fatty rats: ZDF rats, fasting and feeding groups
Excerpt: ZDF Fatty rat is an insulin-resistant test subject animal that has a low sensitivity to insulin, and develops a pathological condition similar to human adult type II diabetes and diabetes complication. In contrast, ZDF Lean rat is a healthy subject animal having normal blood glucose level and normal sensitivity to insulin. Lean and Fatty rats (A) were divided into a fasting group in which the rats were fasted from the previous day, and a feeding group. […] For (a) to (e), expired air was collected from rats (A), and for (f), expired air was collected and rats (B) (each group, n=3).
Expired air was obtained at time points (t minutes) from a time point before the administration of solutions (a) to (f) (0 minutes) to a time point 60 minutes after the administration, and Δ^13C(‰) was determined from ^13CO2 concentration in the expired air using an expired air analysis mass spectrometer (ABCA: product of SerCon).

[2] = ZDF Fatty vs Lean and OLETF vs LETO, 11 weeks
Method: These rats were divided into a fasting group in which the rats were fasted from the previous day, and a feeding group. 1-^13C-sodium palmitate solution prepared in Experimental Example 2 was intravenously administered (2 ml/kg) to each group (each group, n=3).

[3] = fasted Zucker rats
Method: 1-^13C-sodium palmitate was dissolved in hydrous ethanol at about 80° C. at a concentration of 500 μmol/mL.
Rats (male, Zucker rat) were used as experimental animals. The rats that were fasted from the previous day of the test were divided into two groups: oral administration group and intravenous administration group (each group, n=3), and the 1-^13C-sodium palmitate solution (20 μmol/2 mL) prepared in (1) was orally and intravenously administered at a dosage of 2 mL/kg. Expired air was collected at each time point (t minutes) from a time point before administration (0 minutes) to a time point 180 minutes after the administration, and Δ^13C(‰) was determined from the concentration of ^13CO2 in the expired air using an expired air analysis mass spectrometer (ABCA: product of SerCon).
The value of Δ^13C(‰) was determined by measuring a concentration ratio ^13CO2/^12CO2 in the expired air (δ^13C value) at each time point (t minutes) from a time point before the 1-^13C-sodium palmitate administration (0 minutes) to a time point after the administration, and calculating the Δ^13C(‰) value from the difference between the δ^13C value (δ^13Ct) at each point (t) and the δ^13C value before the administration (δ^13Co) (δ^13Ct-δ^13Co) (the same calculation is used in the Experimental Examples below).

[4] = for Δ13C(‰) in expired air, fasting state versus feeding state: intravenous 2 ml/kg
Method: OLETF rats are type II diabetes test subject animal with obesity or/and fatty liver, and LETO rats serve as a control thereof (healthy subjects).
These rats were divided into a fasting group in which the rats were fasted from the previous day, and a feeding group. 1-^13C-sodium palmitate solution prepared in Experimental Example 2 was intravenously administered (2 ml/kg) to each group (each group, n=3). Expired air was collected at time points (t minutes) from a time point before the 1-^13C-sodium palmitate solution administration (0 minutes) to a time point 60 minutes after the administration, and Δ^13C(‰) was determined from the ^13CO2 concentration in the expired air using an expired air analysis mass spectrometer (ABCA: product of SerCon).

[5] = ZDF Fatty rats (insulin-resistant)
[6] = ZDF Lean rats (healthy subjects)

SMILES	Δ13C(‰) of Fatty versus Lean rats [1]	Δ13C(‰) in expired air, fasting state versus feeding state [1, 5]	Δ13C(‰) in expired air, fasting state versus feeding state [1, 6]	transition of Δ13C(‰), Lean rats versus Fatty rats [1]	also measured
CCCCCCCCCCC[13C](=O)O [1-^13C-lauric acid]	higher than that of the healthy subjects (Lean)				
CCCCCCCC/C=C\CCCCCCC[13C](=O)O [1-^13C-oleic acid]	higher than that of the healthy subjects (Lean)	higher in the fasting (hunger) state than in the feeding state	higher in the fasting (hunger) state than in the feeding state		
C[13C](=O)[O-].[Na+] [1-^13C-sodium acetate, reference compound]				little difference between the results of Lean rats and the results of Fatty rats	
CCCCCCC[13C](=O)[O-].[Na+] [1-^13C-sodium octanoate, reference compound]				little difference between the results of Lean rats and the results of Fatty rats	
CCCCCCCCCCCCCCC[13C](=O)[O-].[Na+] [1-^13C-sodium palmitate]	higher than that of the healthy subjects (Lean)	higher in the fasting (hunger) state than in the feeding state	higher in the fasting (hunger) state than in the feeding state		transition of Δ13C(‰), insulin-nonresistant hyperinsulinemia test subject versus healthy subject ([2]; fasting state): little difference; Δ13C(‰) value, insulin-nonresistant hyperinsulinemia test subject versus healthy subject ([2]; feeding state): significantly lower than that of the healthy subject; excretion in expired air [3]: excreted in expired air as ^13CO2; time of Δ13C(‰) peak in expired air after administration ([3]; intravenous administration, 2 mL/kg of 20 μmol/2 mL): ≤ 10 min; transition of Δ13C(‰) in expired air ([3]; oral administration, 2 mL/kg of 20 μmol/2 mL, 0-180 minutes): little variation among respective measurement times; Δ13C(‰) in expired air, fasting state versus feeding state ([4]; LETO rats (healthy subjects)): higher in the fasting (hunger) state than in the feeding state; Δ13C(‰) in expired air, fasting state versus feeding state ([4]; OLETF rats (insulin-resistant, liver disease)): higher in the fasting (hunger) state than in the feeding state; Δ13C(‰) of OLETF versus LETO rats ([4]; fasting group and feeding group, period until 15 minutes after intravenous administration): higher than that of the healthy subjects (LETO)
